ChEMBL document CHEMBL4376882, “Photodynamic Therapy for ras-Driven Cancers: Targeting G-Quadruplex RNA Structures with Bifunctional Alkyl-Modified Porphyrins” (J Med Chem, 2020)
Calls of active or inactive are those of the source. The rule behind the calls is not given here.

Legend:
[1] = test system: HEK293; test: Cytotoxicity against human HEK293 cells assessed as reduction in metabolic activity after 24 to 72 hrs in dark followed by photoirradiation in presence of NADH by resazurin assay; assay type: ADME, cell-based
[2] = test system: PANC-1; test: Induction of apoptosis in human PANC1 cells assessed as late apoptotic cells at 10 nM and photoirradiated at 7.2 J/cm2 measured after 6 to 24 hrs by annexin-V-propidium iodide staining based FACScalibur flow cytometry analysis (reference value: 3.6 %); assay type: functional
[3] = test system: PANC-1; test: Induction of apoptosis in human PANC1 cells assessed as cleavage of caspase 3 when photoirradiated at 7.2 J/cm2 by Western blot analysis; assay type: functional, cell-based
[4] = biological target: Quadruplex DNA; test: Binding affinity to NRAS RNA g-quadruplex (unknown origin) by fluorescence spectroscopy; assay type: nucleic-acid assay
[5] = Drug uptake in human PANC1 cells in presence of dynamin-inhibitor dynasore; assay type: ADME, cell-based; conditions: panc-1
[6] = test system: PANC-1; test: Induction of apoptosis in human PANC1 cells assessed as cleavage of caspase 7 when photoirradiated at 7.2 J/cm2 by Western blot analysis; assay type: functional, cell-based
[7] = test system: PANC-1; test: Cytotoxicity against human PANC1 cells assessed as reduction in metabolic activity after 48 hrs in dark followed by photoirradiation in presence of NADH by resazurin assay; assay type: functional, cell-based; conditions: PANC-1, light or radiation study
[8] = test system: PANC-1; test: Induction of apoptosis in human PANC1 cells assessed as necrotic cells at 15 nM and photoirradiated at 7.2 J/cm2 measured after 6 to 24 hrs by annexin-V-propidium iodide staining based FACScalibur flow cytometry analysis (reference value: 3.2 %); assay type: functional
[9] = biological target: GTPase NRas (Homo sapiens) (UniProt P01111); test: Inhibition of NRAS in human PANC1 cells assessed as decrease in NRAS mRNA level at 15 nM followed by 7.2 J/cm2 irradiation after 4 hrs by qRT-PCR analysis; assay type: cell-based
GTPase NRas (Homo sapiens), sequence (P01111 whole entry): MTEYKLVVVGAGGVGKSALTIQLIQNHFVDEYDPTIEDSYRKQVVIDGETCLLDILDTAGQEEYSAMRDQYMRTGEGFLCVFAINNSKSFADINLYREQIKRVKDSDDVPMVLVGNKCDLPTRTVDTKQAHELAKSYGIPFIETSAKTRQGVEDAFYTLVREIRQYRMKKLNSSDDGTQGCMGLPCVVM

[10] = test system: PANC-1; test: Induction of apoptosis in human PANC1 cells assessed as viable cells at 5 nM and photoirradiated at 7.2 J/cm2 measured after 6 to 24 hrs by annexin-V-propidium iodide staining based FACScalibur flow cytometry analysis (reference value: 85.5 %); assay type: functional; conditions: PANC-1, light or radiation study, read-out: Activity
[11] = test system: PANC-1; test: Induction of apoptosis in human PANC1 cells assessed as viable cells at 10 nM and photoirradiated at 7.2 J/cm2 measured after 6 to 24 hrs by annexin-V-propidium iodide staining based FACScalibur flow cytometry analysis (reference value: 85.5 %); assay type: functional; conditions: PANC-1, light or radiation study, read-out: Activity
[12] = test system: PANC-1; test: Cytotoxicity against human PANC1 cells assessed as reduction in metabolic activity at 20 nM after 24 to 72 hrs in dark followed by photoirradiation in presence of NADH by resazurin assay; assay type: functional, cell-based
[13] = test system: PANC-1; test: Induction of apoptosis in human PANC1 cells assessed as viable cells at 15 nM and photoirradiated at 7.2 J/cm2 measured after 6 to 24 hrs by annexin-V-propidium iodide staining based FACScalibur flow cytometry analysis (reference value: 85.5 %); assay type: functional; conditions: PANC-1, light or radiation study, read-out: Activity
[14] = test system: MIA PaCa-2; test: Cytotoxicity against human MIAPaCa2 cells harboring G12C point mutation assessed as reduction in metabolic activity after 48 hrs in dark followed by photoirradiation in presence of NADH by resazurin assay; assay type: functional, cell-based
[15] = biological target: Quadruplex DNA; test: Binding affinity to human KRAS utr-z RNA g-quadruplex by fluorescence spectroscopy; assay type: nucleic-acid assay
[16] = Binding affinity to NRAS RNA g-quadruplex (unknown origin) at 40 degree C by SPR analysis; assay type: nucleic-acid assay
[17] = biological target: GTPase KRas (Homo sapiens) (UniProt P01116); test: Inhibition of KRAS in human PANC1 cells assessed as downregulation of KRAS expression at 15 nM followed by 7.2 J/cm2 irradiation after 4 hrs by Western blot analysis (reference value: 5 %); assay type: cell-based
GTPase KRas (Homo sapiens), sequence (P01116 whole entry, looked up): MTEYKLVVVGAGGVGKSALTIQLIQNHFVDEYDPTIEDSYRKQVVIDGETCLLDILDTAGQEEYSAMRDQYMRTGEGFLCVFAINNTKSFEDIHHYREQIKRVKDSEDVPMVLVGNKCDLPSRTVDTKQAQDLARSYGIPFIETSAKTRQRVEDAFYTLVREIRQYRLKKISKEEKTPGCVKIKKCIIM

[18] = biological target: GTPase KRas (Homo sapiens) (UniProt P01116); test: Inhibition of KRAS in human PANC1 cells assessed as decrease in KRAS mRNA level at 15 nM followed by 7.2 J/cm2 irradiation after 4 hrs by qRT-PCR analysis; assay type: cell-based
[19] = Drug uptake in human PANC1 cells at 5 uM after 16 hrs by FACS analysis; assay type: ADME, cell-based; conditions: panc-1, 16 h
[20] = biological target: GTPase KRas (Homo sapiens) (UniProt P01116); test: Inhibition of KRAS in human PANC1 cells assessed as downregulation of KRAS expression at 15 nM after 4 hrs by Western blot analysis; assay type: cell-based
[21] = test system: PANC-1; test: Induction of apoptosis in human PANC1 cells assessed as late apoptotic cells at 15 nM and photoirradiated at 7.2 J/cm2 measured after 6 to 24 hrs by annexin-V-propidium iodide staining based FACScalibur flow cytometry analysis (reference value: 3.6 %); assay type: functional
[22] = test system: PANC-1; test: Cytotoxicity against human PANC1 cells assessed as reduction in metabolic activity at 20 nM after 24 to 72 hrs in dark followed by photoirradiation in presence of NADH and NAC by resazurin assay; assay type: functional, cell-based
[23] = Drug uptake in human PANC1 cells at 5 uM after 2 hrs by FACS analysis; assay type: ADME, cell-based; conditions: panc-1, 2 h
[24] = test system: PANC-1; test: Induction of apoptosis in human PANC1 cells assessed as early apoptotic cells at 10 nM and photoirradiated at 7.2 J/cm2 measured after 6 to 24 hrs by annexin-V-propidium iodide staining based FACScalibur flow cytometry analysis (reference value: 7.8 %); assay type: functional
[25] = biological target: Quadruplex DNA; test: Binding affinity to human KRAS utr-c RNA g-quadruplex by fluorescence spectroscopy; assay type: nucleic-acid assay
[26] = biological target: GTPase NRas (Homo sapiens) (UniProt P01111); test: Inhibition of NRAS in human PANC1 cells assessed as downregulation of NRAS expression at 15 nM after 4 hrs by Western blot analysis; assay type: cell-based
[27] = Drug uptake in mouse NIH/3T3 cells at 5 uM and 4 degree C after 16 hrs by FACS analysis relative to 37 degree C; assay type: ADME, cell-based; conditions: nih3t3, 16 h
[28] = biological target: Quadruplex DNA; test: Binding affinity to human KRAS utr-z RNA g-quadruplex at 40 degree C by SPR analysis; assay type: nucleic-acid assay
[29] = Drug localization in cytoplasm of human PANC1 cells at 5 uM after 6 hrs by Hoechst staining based confocal microscopy; assay type: ADME, subcellular; conditions: panc-1, 6 h
[30] = biological target: Quadruplex DNA; test: Binding affinity to human KRAS utr-1 RNA g-quadruplex by fluorescence spectroscopy; assay type: nucleic-acid assay
[31] = test system: PANC-1; test: Induction of apoptosis in human PANC1 cells assessed as cleavage of PARP1 when photoirradiated at 7.2 J/cm2 by Western blot analysis; assay type: functional, cell-based
[32] = Aggregation property of compound at > 40 degree C; assay type: physicochemical
[33] = test system: PANC-1; test: Induction of apoptosis in human PANC1 cells assessed as early apoptotic cells at 15 nM and photoirradiated at 7.2 J/cm2 measured after 6 to 24 hrs by annexin-V-propidium iodide staining based FACScalibur flow cytometry analysis (reference value: 7.8 %); assay type: functional
[34] = test system: PANC-1; test: Induction of apoptosis in human PANC1 cells assessed as necrotic cells at 5 nM and photoirradiated at 7.2 J/cm2 measured after 6 to 24 hrs by annexin-V-propidium iodide staining based FACScalibur flow cytometry analysis (reference value: 3.2 %); assay type: functional
[35] = Drug uptake in human HEK293 cells at 5 uM and 4 degree C after 16 hrs by FACS analysis relative to 37 degree C; assay type: ADME, cell-based; conditions: hek293, 16 h
[36] = test system: PANC-1; test: Induction of apoptosis in human PANC1 cells assessed as necrotic cells at 10 nM and photoirradiated at 7.2 J/cm2 measured after 6 to 24 hrs by annexin-V-propidium iodide staining based FACScalibur flow cytometry analysis (reference value: 3.2 %); assay type: functional
[37] = test system: Quadruplex DNA; test: Binding affinity to human KRAS utr-z RNA g-quadruplex assessed as compound-RNA complex stoichiometry ratio of 9:1 by Job's plot analysis; assay type: nucleic-acid assay
[38] = test system: PANC-1; test: Induction of apoptosis in human PANC1 cells assessed as early apoptotic cells at 5 nM and photoirradiated at 7.2 J/cm2 measured after 6 to 24 hrs by annexin-V-propidium iodide staining based FACScalibur flow cytometry analysis (reference value: 7.8 %); assay type: functional
[39] = test system: PANC-1; test: Induction of apoptosis in human PANC1 cells assessed as late apoptotic cells at 5 nM and photoirradiated at 7.2 J/cm2 measured after 6 to 24 hrs by annexin-V-propidium iodide staining based FACScalibur flow cytometry analysis (reference value: 3.6 %); assay type: functional
[40] = Drug uptake in human PANC1 cells at 5 uM and 4 degree C after 16 hrs by FACS analysis relative to 37 degree C; assay type: ADME, cell-based; conditions: panc-1, 16 h
[41] = biological target: GTPase NRas (Homo sapiens) (UniProt P01111); test: Inhibition of NRAS in human PANC1 cells assessed as downregulation of NRAS expression at 15 nM followed by 7.2 J/cm2 irradiation after 4 hrs by Western blot analysis (reference value: 25 %); assay type: cell-based

SMILES: CCCCCCCCCCCCCCCCCC[n+]1ccc(-c2c3nc(c(-c4cc[n+](C)cc4)c4ccc([nH]4)c(-c4cc[n+](C)cc4)c4nc(c(-c5cc[n+](C)cc5)c5ccc2[nH]5)C=C4)C=C3)cc1.[I-].[I-].[I-].[I-]
- Activity [1]: Non-Toxic
- Activity [2]: 11.43%
- Activity [3]: Active
- Kd [4]: 32 nM
- Drug uptake [5]: Not Active
- Activity [6]: Active
- EC50 [7]: 16.4 nM
- Activity [8]: 5.77%
- inhibition [9]: Active
- viability at 0.005 µM [10]: 78.2%
- viability at 0.01 µM [11]: 81.5%
- Activity [12]: Active
- viability at 0.015 µM [13]: 75.1%
- Activity [14]: Active
- Kd [15]: 99 nM
- Kd [16]: 56 to 98 nM
- inhibition [17]: 20%
- inhibition [18]: Active
- Drug uptake [19]: Active
- inhibition [20]: inactive
- Activity [21]: 15.63%
- Activity [22]: inactive
- Drug uptake [23]: Active
- Activity [24]: 3.03%
- Kd [25]: 188 nM
- inhibition [26]: inactive
- Drug uptake [27]: Active
- Kd [28]: 82 to 202 nM
- Drug uptake [29]: Active
- Kd [30]: 150 nM
- Activity [31]: Active
- Activity [32]: Active
- Activity [33]: 3.53%
- Activity [34]: 2.1%
- Drug uptake [35]: Active
- Activity [36]: 4.03%
- Activity [37]: Active
- Activity [38]: 7.35%
- Activity [39]: 12.4%
- Drug uptake [40]: 47%
- inhibition [41]: 50%
